# Results: patent publication US20180057505A1, “BICYCLIC HETEROARYL COMPOUNDS USEFUL AS INHIBITORS OF THE PAR-2 SIGNALING PATHWAY” (VERTEX PHARMACEUTICALS INCORPORATED, priority 2015, published 2018)
# Legend:
# Format in all cases: cell-based
# [1] = biological target: T1, PAR2 (HT-29 cells) (Homo sapiens, UniProt P55085); experiment: Ca FLIPR TETRA assay, ANTAGONIST mode, activator 8 μM SLIGKV; conditions: HT-29 cells, activator 8 μM SLIGKV; maximal antagonist concentration per Method (A: 0.1, 1 or 2 μM; B: 50 μM)
# T1 construct: host or cells: HT-29
# T1 sequence (P55085 26-397): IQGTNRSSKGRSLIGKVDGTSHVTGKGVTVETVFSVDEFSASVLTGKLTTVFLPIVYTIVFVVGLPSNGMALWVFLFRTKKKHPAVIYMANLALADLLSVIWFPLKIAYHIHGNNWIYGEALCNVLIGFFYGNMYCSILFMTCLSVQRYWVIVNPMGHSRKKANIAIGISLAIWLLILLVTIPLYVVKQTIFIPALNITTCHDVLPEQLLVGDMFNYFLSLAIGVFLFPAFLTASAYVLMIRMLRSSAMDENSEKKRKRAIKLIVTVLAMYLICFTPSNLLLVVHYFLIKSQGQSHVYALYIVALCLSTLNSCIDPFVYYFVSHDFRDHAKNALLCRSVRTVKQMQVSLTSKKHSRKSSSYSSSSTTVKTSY
# Summary of the method: (§1)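 Antagonist-mode FLIPR Tetra Ca2+ read: dye-loaded HT-29 cells preincubated 30 min at r.t. with compound (first read checks agonism alone), then challenged with final 3.1 U/mL trypsin, 8 μM SLIGKV, 1 U/mL thrombin or 0.6 μM UTP. Cells plated overnight in 1% FBS McCoy's; Calcium 5 loading 45 min 37 °C plus 15 min r.t.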
# [2] = biological target: T1, PAR2 (HT-29 cells); experiment: Ca FLIPR TETRA assay, ANTAGONIST mode, activator 3.1 U/mL trypsin; conditions: for IC50: HT-29 cells, activator 3.1 U/mL trypsin, maximal antagonist concentration per Method (A: 0.1, 1 or 2 μM; B: 50 μM); for Trypsin, % @ 50: @ 50 (μM)
# Summary of the method: as §1
# [3] = test system: Thrombin-stimulated Ca2+ response in HT-29 cells; experiment: Ca FLIPR TETRA assay, ANTAGONIST mode, activator 1 U/mL Thrombin; conditions: HT-29 cells, activator 1 U/mL Thrombin
# Summary of the method: as §1
# [4] = test system: UTP-stimulated Ca2+ response in HT-29 cells; experiment: Ca FLIPR TETRA assay, ANTAGONIST mode, activator 0.6 μM UTP; conditions: for IC50: HT-29 cells, activator 0.6 μM UTP; for inhibition at 50 µM: HT-29
# Summary of the method: as §1
IC50 [1] [nM],IC50 [2] [nM],IC50 ([3]; Homo sapiens) [µM],IC50 ([4]; Homo sapiens) [µM],"Trypsin, % @ 50 [2] [% @ 50]",IC50 [3] [µM],IC50 [4] [µM],SMILES,inhibition at 50 µM ([4]; Homo sapiens) [%]
1600,4700,19,20,–,–,–,CC(C)c1cc(-c2ccc(F)cc2)nc2cc(C(=O)N3CCN(C(=O)C4CCOC4)[C@@H](C)C3)oc12 (stereo partly drawn) [Example I-80],–
22,–,> 50,–,66,–,–,CC(C)c1cc(-c2ccc(F)cc2)nc2cc(C(=O)N3CCN(C(=O)C4CCCC4)[C@@H](C)C3)oc12 [Example I-81],46
180,–,> 50,47,70,–,–,CCC(CC)C(=O)N1CCN(C(=O)c2cc3nc(-c4ccc(F)cc4)cc(C(C)C)c3o2)C[C@@H]1C [Example I-82],–
4.5,7.8,11,29,–,–,–,CC(C)c1cc(-c2ccc(F)cc2)nc2cc(C(=O)N3CCN(C(=O)C(O)c4ccc(F)cc4)[C@@H](C)C3)oc12 (stereo partly drawn) [Example I-83],–
6.3,29,50,> 25,–,–,–,CO[C@@H](C(=O)N1CCN(C(=O)c2cc3nc(-c4ccc(F)cc4)cc(C(C)C)c3o2)C[C@@H]1C)c1ccccc1 [Example I-84],–
30,250,> 50,> 50,–,–,–,CC(Oc1ccccc1)C(=O)N1CCN(C(=O)c2cc3nc(-c4ccc(F)cc4)cc(C(C)C)c3o2)C[C@@H]1C (stereo partly drawn) [Example I-85],–
390,530,> 50,–,–,–,–,CC(C)c1cc(-c2ccc(F)cc2)nc2cc(C(=O)N3CCN(C(=O)c4ccno4)[C@@H](C)C3)oc12 [Example I-86],60
3700,3800,19,16,–,–,–,CC(C)c1cc(-c2ccc(F)cc2)nc2cc(C(=O)N3CCN(C(=O)C(C)(C)O)[C@@H](C)C3)oc12 [Example I-87],–
160,340,17,17,–,–,–,CC(C)c1cc(-c2ccc(F)cc2)nc2cc(C(=O)N3CCN(C(=O)C4CCCCO4)[C@@H](C)C3)oc12 (stereo partly drawn) [Example I-88],–
1000,1100,13,11,–,–,–,CC(C)c1cc(-c2ccc(F)cc2)nc2cc(C(=O)N3CCN(C(=O)C4(O)CCC4)[C@@H](C)C3)oc12 [Example I-89],–
2.6,7.2,> 50,42,–,–,–,CC(C)c1cc(-c2ccc(F)cc2)nc2cc(C(=O)N3CCN(C(=O)[C@H](O)CC(C)(C)C)[C@@H](C)C3)oc12 [Example I-90],–
3300,3800,9.4,11,–,–,–,CC(C)c1cc(-c2ccc(F)cc2)nc2cc(C(=O)N3CCN(C(=O)C4(O)CCOCC4)[C@@H](C)C3)oc12 [Example I-91],–
4700,6200,–,–,–,7.9,7.4,CC(C)c1cc(-c2ccc(F)cc2)nc2cc(C(=O)N3CCN(C(=O)C4(O)CCC4)CC3)oc12 [Example I-92],–
18000,16000,25,29,–,–,–,CC(C)c1cc(-c2ccc(F)cc2)nc2cc(C(=O)N3CCN(C(=O)[C@@H](C)O)CC3)oc12 [Example I-93],–
1200,620,6.7,–,–,–,–,CC(C)c1cc(-c2ccc(F)cc2)nc2cc(C(=O)N3CCN(C(=O)[C@H](O)CC(C)(C)C)CC3)oc12 [Example I-94],74
10000,8900,15,14,–,–,–,CC(C)c1cc(-c2ccc(F)cc2)nc2cc(C(=O)N3CCN(C(=O)C4(O)CCOCC4)CC3)oc12 [Example I-95],–
13000,12000,17,14,–,–,–,CC(C)c1cc(-c2ccc(F)cc2)nc2cc(C(=O)N3CCN(C(=O)C(C)(C)O)CC3)oc12 [Example I-96],–
4100,5100,18,15,–,–,–,CC(C)c1cc(-c2ccc(F)cc2)nc2cc(C(=O)N3CCN(C(=O)C4(O)CCC4)C[C@H]3C)oc12 [Example I-97],–
